Reference: paper PMC7822874, “Chemoprotective antimalarials identified through quantitative high-throughput screening of Plasmodium blood and liver stage parasites” (Scientific Reports, 2021)
Where “and” joins values, the source holds several entries; their conditions need not be identical. Equal values may be shown once. Read-outs that look alike come from different tables or passages of the source.

Tests used:
[1] = test system: T1, Plasmodium falciparum Dd2-attB (parental line), asexual blood stages; assay: microbe, parasite or virus in culture; design: replicate k of 3 (each line is one of three independent assays; the three lines of one compound and parasite line follow each other); conditions: n = 1; for Individual replicates / Log AC50 (M): 72 h; for AC50: Plasmodium falciparum, DD2, 72 h, read-out: Individual replicates / Log AC50 (converted)
T1 construct: Dd2-attB, the isogenic parental line
Procedure, shortened: (§1)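 Both lines were tested side by side with selected compounds, repeated in three independent assays. Differences between parental and ScDHODH-expressing parasites were then assessed with a two-sided Student's t-test.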

[2] = test system: T2, Plasmodium falciparum Dd2-attB-ScDHODH (transgenic line expressing yeast DHODH), asexual blood stages; assay: organism not typed; design: replicate k of 3 (each line is one of three independent assays; the three lines of one compound and parasite line follow each other); conditions: 72 h, n = 1; for AC50: read-out: Individual replicates / Log AC50 (converted)
T2 construct: Dd2-attB-ScDHODH, the transgenic line that expresses yeast DHODH
Procedure, shortened: as §1

[3] = in vitro; conditions: human, n = 1
[4] = test system: Plasmodium falciparum Dd2 asexual blood stage parasites; assay: microbe, parasite or virus in culture; design: species or system Plasmodium falciparum Dd2 in human erythrocytes; single determination (one 11-point concentration-response curve); conditions: Plasmodium falciparum, DD2, Erythrocyte, 72 h; read-out: AC50
[5] = test system: HepG2-A16-CD81EGFP cells; conditions: average of 2 wells; for HepG2 viability signal, 3 uM, repeat 2: nominal 3 uM (10 mM stock), 4.5 uM for 15 mM, 3.6 uM for 12 mM, 6 uM for 20 mM stock
[6] = test system: P. berghei-ANKA-GFP-LucCON liver stage parasites in HepG2-A16-CD81EGFP cells; assay: P. berghei liver stage Pb-Luc assay, Method 1 (UCSD, 1536-well); type: cell-based, Plasmodium berghei; conditions: for activity at 1 µM / activity at 3 µM: 48 h; for Max Resp (signal direction of the dose response): Decrease = decreasing P. berghei viability with dose, Increase = increasing signal, Inactive = no dose response
[7] = in vitro; conditions: human, HepG2-A16-CD81EGFP cells, uninfected
[8] = test system: luciferase-expressing P. berghei liver stage parasites in HepG2 cells; assay: Inhibition of liver-stage development assay (ILSDA), Method 2 (WRAIR, 96-well); type: cell-based, Plasmodium berghei; conditions: for Max Resp (signal direction of the dose response): Method 2, Decrease = decreasing P. berghei viability with dose, Increase = increasing signal, Inactive = no dose response; for AC50: Plasmodium berghei, HepG2, Method 2
[9] = nominal 1 uM (10 mM stock), […] for 15 mM, 1.2 uM for 12 mM, 2 uM for 20 mM stock
[10] = Plasmodium berghei, nominal 1 uM (10 mM stock), […] for 15 mM, 1.2 uM for 12 mM, 2 uM for 20 mM stock, average of 2 wells, 1536-well plate, repeat 1, read-out: Pb-Luc signal, 1 uM, repeat 1
[11] = Plasmodium berghei, nominal 1 uM (10 mM stock), […] for 15 mM, 1.2 uM for 12 mM, 2 uM for 20 mM stock, average of 2 wells, 1536-well plate, repeat 2, read-out: Pb-Luc signal, 1 uM, repeat 2
[12] = Plasmodium berghei, nominal 1 uM (10 mM stock), […] for 15 mM, 1.2 uM for 12 mM, 2 uM for 20 mM stock, average of 2 wells, 1536-well plate, repeat 3, read-out: Pb-Luc signal, 1 uM, repeat 3
[13] = Plasmodium berghei, nominal 3 uM (10 mM stock), 4.5 uM for 15 mM, 3.6 uM for 12 mM, 6 uM for 20 mM stock, average of 2 wells, 1536-well plate, repeat 1, read-out: Pb-Luc signal, 3 uM, repeat 1
[14] = Plasmodium berghei, nominal 3 uM (10 mM stock), 4.5 uM for 15 mM, 3.6 uM for 12 mM, 6 uM for 20 mM stock, average of 2 wells, 1536-well plate, repeat 2, read-out: Pb-Luc signal, 3 uM, repeat 2
[15] = Plasmodium berghei, nominal 3 uM (10 mM stock), 4.5 uM for 15 mM, 3.6 uM for 12 mM, 6 uM for 20 mM stock, average of 2 wells, 1536-well plate, repeat 3, read-out: Pb-Luc signal, 3 uM, repeat 3
[16] = Plasmodium berghei, Method 1, Hill fit, 50% of maximum activity response, read-out: AC50
[17] = Plasmodium berghei, Method 1, log10 of molar AC50 from Hill fit, read-out: Log AC50 (converted)
[18] = Hill fit, 50% of maximum activity response, read-out: AC50
[19] = log10 of molar AC50 from Hill fit, read-out: Log AC50 (converted)

Question: With `Oc1c(CN2CCCCC2)cc(COCc2ccccc2)c2cccnc12` [NCGC00052274-02] as the compound, how does the “Individual replicates / Log AC50 (M)” value [1] read?
Answer: -5.4486 Log AC50 (M) and -5.3486 Log AC50 (M)

Question: And the AC50 [1]?
Answer: 5.64 µM

Question: What about the “Individual replicates / Log AC50 (M)” value [2] of the same compound?
Answer: -5.4986 Log AC50 (M)

Question: What about the AC50 [2] of the same compound?
Answer: 5.03 µM

Question: What about the CC50 at 48 h ([3]; HepG2 cells) of the same compound?
Answer: 6.85 µM

Question: And the AC50 [4]?
Answer: 8.41 µM

Question: What does the source list for `CN(C)C1CCN(Cc2cc(COCc3ccccc3)c3cccnc3c2O)C1` (stereo not drawn) [NCGC00183372-01]?
Answer: Individual replicates / Log AC50 (M) [1]: -5.2486 Log AC50 (M) and -5.1486 Log AC50 (M); AC50 [1]: 5.03 µM; Individual replicates / Log AC50 (M) [2]: -5.2986 Log AC50 (M) and -5.1986 Log AC50 (M) and -4.7986 Log AC50 (M); CC50 at 48 h ([3]; HepG2 cells): 21.7 µM

Question: With `COc1ccc(CN[C@@H]2C=C[C@@H](c3c(C)nn(-c4ccc(OC)cc4)c3C)C2)cc1` [NCGC00401425-01] as the compound, how does the “HepG2 viability signal, 1 uM, repeat 2” value [5, 9] read?
Answer: 96.20%

Question: What about the “HepG2 viability signal, 3 uM, repeat 2” value [5] of the same compound?
Answer: 99.98%

Question: And the activity at 1 µM [6, 10]?
Answer: 79.1%

Question: And the activity at 1 µM [6, 11]?
Answer: 135%

Question: And the activity at 1 µM [6, 12]?
Answer: 59%

Question: What about the activity at 3 µM [6, 13] of the same compound?
Answer: 56.4%

Question: And the activity at 3 µM [6, 14]?
Answer: 76.7%

Question: And the activity at 3 µM [6, 15]?
Answer: 51.8%

Question: What about the viability at 48 h, 1 µM [7] of the same compound?
Answer: 100%

Question: And the viability at 48 h, 3 µM [7]?
Answer: 99.3%

Question: And the CC50 at 48 h ([3]; HepG2 cells)?
Answer: 39.6 µM

Question: What about the AC50 [4] of the same compound?
Answer: 4.85 µM

Question: With `Cc1nn2c(c1-c1ccccc1-c1ccccc1)N(Cc1ccc(O)cc1)CCC2` [NCGC00420512-01] as the compound, how does the “HepG2 viability signal, 1 uM, repeat 2” value [5, 9] read?
Answer: 99.38%

Question: And the “HepG2 viability signal, 3 uM, repeat 2” value [5]?
Answer: 110.31%

Question: And the “Max Resp (signal direction of the dose response)” value ([6]; Method 1)?
Answer: Decrease

Question: And the activity at 1 µM [6, 10]?
Answer: 76.6%

Question: And the activity at 1 µM [6, 11]?
Answer: 69.5%

Question: What about the activity at 1 µM [6, 12] of the same compound?
Answer: 95.1%

Question: What about the activity at 3 µM [6, 13] of the same compound?
Answer: 15.6%

Question: And the activity at 3 µM [6, 14]?
Answer: 15.8%

Question: And the activity at 3 µM [6, 15]?
Answer: 40.5%

Question: What about the AC50 [6, 16] of the same compound?
Answer: 1.58 µM

Question: What about the AC50 [6, 17] of the same compound?
Answer: 1.58 µM

Question: What about the viability at 48 h, 1 µM [7] of the same compound?
Answer: 96.5%

Question: And the viability at 48 h, 3 µM [7]?
Answer: 112%

Question: And the CC50 at 48 h ([3]; HepG2 cells)?
Answer: 28 µM

Question: What about the AC50 [4] of the same compound?
Answer: 0.485 µM

Question: Which results are given for `Oc1c(C(Nc2nccs2)c2ccc(C(F)(F)F)cc2)ccc2cccnc12` (stereo not drawn) [MLS000774842-01]?
Answer: CC50 at 48 h ([3]; HepG2 cells): 15.3 µM; Max Resp (signal direction of the dose response) [8]: Decrease; AC50 [8, 18]: 0.282 µM; AC50 [8, 19]: 0.282 µM; AC50 [4]: 5.31 µM

Question: Which “HepG2 viability signal, 1 uM, repeat 1” value ([5]; nominal 1 uM (10 mM stock), […] for 15 mM, 1.2 uM for 12 mM, 2 uM for 20 mM stock, repeat 1) does the source give for `COc1ccc(C2C=C(c3ccc(Cl)cc3)Nc3nc(-c4ccc(Cl)cc4)nn32)cc1` (stereo not drawn) [NCGC00100531-01] here?
Answer: 97.18%

Question: And the “HepG2 viability signal, 1 uM, repeat 2” value [5, 9]?
Answer: 96.07%

Question: And the “HepG2 viability signal, 3 uM, repeat 2” value [5]?
Answer: 80.71%

Question: What about the “Max Resp (signal direction of the dose response)” value ([6]; Method 1) of the same compound?
Answer: Inactive

Question: What about the activity at 1 µM [6, 10] of the same compound?
Answer: 88.1%

Question: What about the activity at 1 µM [6, 11] of the same compound?
Answer: 81%

Question: And the activity at 1 µM [6, 12]?
Answer: 70.8%

Question: And the activity at 3 µM [6, 13]?
Answer: 5.3%

Question: What about the activity at 3 µM [6, 14] of the same compound?
Answer: 3.16%

Question: What about the activity at 3 µM [6, 15] of the same compound?
Answer: 51.4%

Question: What about the CC50 at 48 h ([3]; hepg2) of the same compound?
Answer: 15.3 µM

Question: And the AC50 [4]?
Answer: 0.237 µM

Question: What does the source list for `O=C(Nc1ccc(Br)cc1)c1ccc(F)c([S+](=O)([O-])NC2CCCCCC2)c1` [NCGC00139407-01]?
Answer: Max Resp (signal direction of the dose response) ([6]; Method 1): Decrease; AC50 ([6]; Method 1, Hill fit, 50% of maximum activity response, read-out: AC50): 1.12 µM; Log AC50 (M) ([6]; Method 1, log10 of molar AC50 from Hill fit): -5.950 M; AC50 [6, 16]: 0.562 µM; AC50 [6, 17]: 0.562 µM; CC50 at 48 h ([3]; HepG2 cells): 13.7 µM; Max Resp (signal direction of the dose response) [8]: Decrease; AC50 [8, 18]: 0.631 µM; AC50 [8, 19]: 0.631 µM; AC50 [4]: 9.44 µM

Question: For `Oc1c(CN2CCCC2)cc(COCc2ccccc2)c2cccnc12` [NCGC00183371-01], which “Individual replicates / Log AC50 (M)” value [1] is on record?
Answer: -5.2986 Log AC50 (M) and -5.1986 Log AC50 (M)

Question: And the AC50 [1]?
Answer: 3.99 µM

Question: And the “Individual replicates / Log AC50 (M)” value [2]?
Answer: -4.7986 Log AC50 (M) and -5.1486 Log AC50 (M)

Question: And the CC50 at 48 h ([3]; HepG2 cells)?
Answer: 8.62 µM

Question: What about the AC50 [4] of the same compound?
Answer: 6.68 µM

Question: Which results are given for `O=C(N/N=C(/c1ccccc1)c1cccnc1)c1cccc(F)c1` [MLS001224623-01]?
Answer: HepG2 1uM growth rep1 ([5]; HepG2, 1 µM compound treatment (10 mM stocks), replicate 1, normalized): 68%; HepG2 1uM growth rep2 ([5]; HepG2, 1 µM compound treatment (10 mM stocks), replicate 2, normalized): 59%; HepG2 3uM growth rep1 ([5]; HepG2, 3 µM compound treatment (10 mM stocks), replicate 1, normalized): 30%; HepG2 3uM growth rep2 ([5]; HepG2, 3 µM compound treatment (10 mM stocks), replicate 2, normalized): 34%; activity at 1 µM ([6]; Plasmodium berghei, P. berghei liver stage, 1 µM compound treatment (10 mM stocks), replicate 1, normalized, average of 2 wells on a 1536 well plate, read-out: PbLuc 1uM growth rep1): 10%; activity at 1 µM ([6]; Plasmodium berghei, P. berghei liver stage, 1 µM compound treatment (10 mM stocks), replicate 2, normalized, average of 2 wells on a 1536 well plate, read-out: PbLuc 1uM growth rep2): 9%; activity at 3 µM ([6]; Plasmodium berghei, P. berghei liver stage, 3 µM compound treatment (10 mM stocks), replicate 1, normalized, average of 2 wells on a 1536 well plate, read-out: PbLuc 3uM growth rep1): 6.61%; activity at 3 µM ([6]; Plasmodium berghei, P. berghei liver stage, 3 µM compound treatment (10 mM stocks), replicate 2, normalized, average of 2 wells on a 1536 well plate, read-out: PbLuc 3uM growth rep2): 8%; CC50 at 48 h ([3]; HepG2 cells): 12.2 µM; AC50 [4]: 4.22 µM

Question: For `Oc1c(CNc2ccccc2)cc(COCc2ccccc2)c2cccnc12` [NCGC00183370-01], which “Individual replicates / Log AC50 (M)” value [1] is on record?
Answer: -5.0486 Log AC50 (M)

Question: What about the AC50 [1] of the same compound?
Answer: 11.3 µM

Question: And the “Individual replicates / Log AC50 (M)” value [2]?
Answer: -4.7986 Log AC50 (M)

Question: What about the AC50 [2] of the same compound?
Answer: 14.2 µM

Question: And the CC50 at 48 h ([3]; HepG2 cells)?
Answer: 21.7 µM
